Test results: patent US5446023A, “Amphiphilic compounds derived from amino acids or peptides, their methods of synthesis and their application as drug delivery systems” (Alliance Pharmaceutical Corporation, priority 1992, dated 1995)

What was measured:
[1] = Differential scanning calorimetry: phase transition temperature and transition enthalpy; format: physicochemical
Protocol: The phase transition temperatures and the transition enthalpies were determined after hydration by a known quantity of water using a SETARAM DSC-92 apparatus.
Example 22: Product 6d (16 mg) was hydrated with […] of a mixture of water/ethylene glycol 60/40 (hydratation percentage 28%).
Example 23: Product 6a (10.8 mg) was hydrated with a mixture of water/ethylene glycol 60/40 (hydration percentage 37%).

[2] = Identification of vesicles by (transmission) electronic microscopy, negative staining; format: physicochemical; conditions: for formation of vesicles: procedure of example 14, 10^-2 M; for formation of vesicles / formation of vesicles upon dispersion with water: electronic microscopy; for formation of vesicles upon dispersion with water: 10^-2 M; for formation of vesicles (transmission electronic microscopy): negative staining, after dispersion
Protocol: (§1) Product 6a (30 mg) was dissolved in a mixture of chloroform/methanol (1/1 v/v) in a round 4 mL tube. The solvent was evaporated in a rotavapor until a uniform film was obtained. The remaining traces of solvent were eliminated under vacuum. Water for injectable preparations (3.97 mL) was added to the dried product. After stirring with a Vortex for 3 minutes, sonication (BRANSON B30, 7 mm probe, Power 5, pulsed mode 50, 15 minutes) at 20° C. above the phase-transition temperature gave a bluish dispersion.
The formation of vesicles was observed by transmission electronic microscopy by the negative staining method. The lipidic dispersion was applied on a grid covered with FORMVAR membrane. The sample was colored by depositing of a drop of phosphotungstic acid (2%, pH adjusted to 7) for 1 min. The excess acid was removed using a filter paper. The grid was then dried and the sample was examined using a PHILIPS microscope (CM2 Model) at 80 Kv.
FIG. 1 is a micrography obtained in these conditions on a 10^-2 M dispersion of product 6a.

[3] = Observation of vesicles by electronic microscopy after freeze-fracture; format: physicochemical; conditions: 10^-2 M dispersions
Protocol: One drop of lipic dispersion (about […]) was placed on a copper support. Freezing was realized by rapid immersion in liquid propane […]. The fractures were realized using a Balzers BAF 300 at -120° C. under 10^-6 mmHg with a knife cooled to -150° C. The replicas were obtained by depositing a platinum layer (10-20 A) under an angle of 35° then carbon (110-120 A) with an angle of 90°. The replicas were then immersed in water, washed, placed on a copper grid (3 mm, 300 mesh) and examined with a HITACHI 600 electronic microscope (H600) at 75 KV. […] FIG. 2 represents the photomicrographs obtained on 10^-2 M dispersions of products 6b, 7a, 7b.

mice [4] = assay: In vivo toxicity in mice, rapid intraperitoneal injection; conditions: 500 mg/kg
Protocol: (§2) In vivo toxicity of products 6a, 6b, 6c in mice. A rapid intraperitoneal injection was made, of 0.5 mL (25 mL/kg animal body weight, n=10) of a dispersion of these products in physiological water.

[5] = as above; conditions: mouse, in vivo, ip
Protocol: as §2

[6] = test system: lymphoblastoid cell cultures of the Namalva type; assay: Toxicity on lymphoblastoid cell cultures (Namalva); format: cell-based; conditions: 4 days at 37° C.
Protocol: Example 26: The toxicity of products 6a and 6e was determined on lymphoblastoid cell cultures of the Namalva type in an RPMI medium containing 10% of foetal calf serum at 37° C. under 7% CO2, according to the method described by M. Le Blanc et al in Pharm. Res. 195 (1988).

[7] = format: physicochemical; set-up: formation of vesicles after sonication: dose or concentration left out as unconfirmed
Protocol: as §1
An aqueous dispersion of compound 7b ([…], 60 mM) in citric acid (2 ml, 1M pH=4) was prepared (sonication, probe 3 mm, power5, room temperature, 5 min, mean diameter=35 nm). […] Adriamycin (12 ml, 30 mM) was added to the liposomal dispersion. The amount of drug encapsulated, the stability of encapsulation over time and the release of adriamycin were measured.

human erythrocytes = assay: Hemolytic activity on human erythrocytes; format: cell-based; conditions: concentration of 50 g/l, 1 hour, 37° C.
Protocol: Example 25: The hemolytic activity of products 6h, 6i was determined by adding 2 mL of a solution of these products in physiological water to an equal volume of a 1% suspension of human erythrocytes in an isotonic phosphate buffer. After an hour of incubation at 37° C. the solutions were centrifuged. The degree of hemolysis was determined spectrophotometrically (540 nm) by comparing the quantity of hemoglobin liberated in the supernatant. Compounds 6h, 6i were not hemolytic at a concentration of 50 g/l.

mice [8] = assay: In vivo toxicity in mice, rapid intravenous injection; conditions: 625 mg/kg, 1 month of observation, 10 mice
Protocol: (§3) Example 24: In vivo toxicity of product 6i in mice. A rapid intravenous injection into the caudal vein, of 0.5 mL (25 mL/kg animal body weight) of a solution of 6i in physiological water, to which Pluronic F-68 was added as dispersant (25/10 g/L, 6i/Pluronic F-68) was made.

[9] = as above; conditions: mouse, in vivo, caudal vein, 25 mL/kg, 6i/Pluronic F-68 25/10 g/L, mice, read-out: tolerated dose
Protocol: as §3

[10] = water/ethylene glycol 60/40, hydration percentage 28%, -10° C. to 45° C., 2° C./min
[11] = intraperitoneal, 1 month of observation, 10 mice
[12] = intraperitoneal, 25 mL/kg dispersion in physiological water, mice, read-out: tolerated dose
[13] = water/ethylene glycol 60/40, hydration percentage 37%

For CCCCCCCCCCCCC(CCCCCCCCCCC)NC(=O)CNC(=O)[C@H](O)[C@@H](O)[C@H](O[C@@H]1O[C@H](CO)[C@H](O)[C@H](O)[C@H]1O)[C@H](O)CO (stereo partly drawn) [Product 6d, N-α-1-[lactobionocarbonyl]-N-12-[tetraeicosyl] glycinamide], the “Tc (phase transition temperature)” value [1, 10] was 14 °C, the transition enthalpy [1, 10] was -10.29 mcal/mg and the formation of vesicles [2] was “led to the formation of vesicles”.
For CCCCCCCCCC(CCC(F)(F)C(F)(F)C(F)(F)C(F)(F)C(F)(F)C(F)(F)F)NC(=O)CNC(=O)CNC(=O)[C@H](O)[C@@H](O)[C@H](O[C@@H]1O[C@H](CO)[C@H](O)[C@H](O)[C@H]1O)[C@H](O)CO (stereo partly drawn) [Product 7a], the “formation of vesicles upon dispersion with water” value [2] was “forms monolayered vesicles almost instantaneously”, the “formation of vesicles (transmission electronic microscopy)” value [2] was “formation of vesicles was also observed” and the “formation of vesicles (freeze-fracture)” value [3] was “formation of vesicles was established”.
For C=CCCCCCCCCC(CCC(F)(F)C(F)(F)C(F)(F)C(F)(F)C(F)(F)C(F)(F)F)NC(=O)CNC(=O)[C@H](O)[C@@H](O)[C@H](O[C@@H]1O[C@H](CO)[C@H](O)[C@H](O)[C@H]1O)[C@H](O)CO (stereo partly drawn) [Product 6c], the deaths (mice [4]; [11]) was “no deaths occurred” and the MTD at 730 h [5, 12] was 500 mg/kg.
With CCCCCCCCCC(CCC(F)(F)C(F)(F)C(F)(F)C(F)(F)C(F)(F)C(F)(F)F)NC(=O)CNC(=O)[C@H](O)[C@@H](O)[C@H](O[C@@H]1O[C@H](CO)[C@H](O)[C@H](O)[C@H]1O)[C@H](O)CO (stereo partly drawn) [Product 6e, N-α-1-[lactobionocarbonyl]-N-3-[1-(perfluorohexyl)dodecyl] glycinamide] the “effect on growth and viability of the cells” value (shortened to “effect on growth and viability”) [6] was “did not affect the growth and viability of the cells”, the “formation of vesicles after sonication” value ([7]; sonication 20 minutes) was “led to the formation of vesicles” and the “average diameter of vesicles after sterilization” value ([7]; sonication 20 minutes, after sterilization) was 318 nm.
With C=CCCCCCCCCC(CCCCCCCCCCCC)NC(=O)CNC(=O)[C@H](O)[C@@H](O)[C@H](O[C@@H]1O[C@H](CO)[C@H](O)[C@H](O)[C@H]1O)[C@H](O)CO (stereo partly drawn) [Product 6a, Nα-[1-lactobionocarbonyl]-N-11[trieicos-1-en-yl] glycinamide] the “Tc (phase transition temperature)” value [1, 13] was 22 °C, the transition enthalpy [1, 13] was -11.6 mcal/mg and the deaths (mice [4]; mouse, in vivo, ip) was “no deaths occurred”. The MTD at 730 h [5] was 500 mg/kg, the “formation of vesicles (transmission electronic microscopy)” value [2] was “formation of vesicles was also observed” and the “effect on growth and viability” value [6] was “did not affect the growth and viability of the cells”. For the same compound, the “stability of dispersion (particle size)” value [7] was “at least 1 month”, the “effect of sterilization on vesicles” value ([7]; 121° C. for 15 minutes) was “did not significantly modify these vesicles” and the “average particle diameter Φ after sterilization” value ([7]; after sterilization at 121° C. for 15 minutes) was 61 nm. For the same compound, the “average particle diameter Φ before sterilization” value ([7]; before sterilization at 121° C. for 15 minutes) was 58 nm and the “average particle diameter Φ” value ([7]; dispersion after sonication 15 min) was 49 nm.
For O=C(CNC(=O)[C@H](O)[C@@H](O)[C@H](O[C@@H]1O[C@H](CO)[C@H](O)[C@H](O)[C@H]1O)[C@H](O)CO)NCCC(F)(F)C(F)(F)C(F)(F)C(F)(F)C(F)(F)C(F)(F)C(F)(F)C(F)(F)F [Product 6i], the hemolytic activity (human erythrocytes) was “not hemolytic”, the deaths (mice [8]) was “no deaths occurred” and the MTD at 730 h [9] was 625 mg/kg. The “effect on growth and viability” value [6] was “did not affect the growth and viability of the cells”.
For C=CCCCCCCCCC(CCCCCCCCCCCC)NC(=O)CNC(=O)CNC(=O)[C@H](O)[C@@H](O)[C@H](O[C@@H]1O[C@H](CO)[C@H](O)[C@H](O)[C@H]1O)[C@H](O)CO (stereo partly drawn) [Product 7b, N-α-(N-α-1-lactobionocarbonyl)-glycyl-N-11-(trieicos-1-enyl) glycinamide], the “formation of vesicles upon dispersion with water” value [2] was “forms monolayered vesicles almost instantaneously”, the “formation of vesicles (transmission electronic microscopy)” value [2] was “formation of vesicles was also observed” and the “mean diameter of liposomal dispersion” value ([7]; 60 mM in citric acid 1M pH=4, sonication 5 min, room temperature) was 35 nm. For the same compound, the “formation of vesicles (freeze-fracture)” value [3] was “formation of vesicles was established”.
For C=CCCCCCCCCC(CCC(F)(F)C(F)(F)C(F)(F)C(F)(F)C(F)(F)C(F)(F)C(F)(F)C(F)(F)F)NC(=O)CNC(=O)[C@H](O)[C@@H](O)[C@H](O[C@@H]1O[C@H](CO)[C@H](O)[C@H](O)[C@H]1O)[C@H](O)CO (stereo partly drawn) [Product 6b, N-α-[1-lactobionocarbonyl]-N-3-[1-(perfluooctyl)tridec-12-enyl] glycinamide], the deaths (mice [4]; [11]) was “no deaths occurred”, the MTD at 730 h [5, 12] was 500 mg/kg and the formation of vesicles [2] was “led to the formation of vesicles”. For the same compound, the “formation of vesicles (freeze-fracture)” value [3] was “formation of vesicles was established”.
In the case of O=C(CNC(=O)[C@H](O)[C@@H](O)[C@H](O[C@@H]1O[C@H](CO)[C@H](O)[C@H](O)[C@H]1O)[C@H](O)CO)NCCC(F)(F)C(F)(F)C(F)(F)C(F)(F)C(F)(F)C(F)(F)F [Product 6h, Nα-1-[lactobionocarbonyl]N-1-[2-(perfluorohexyl)ethyl] glycinamide], the hemolytic activity (human erythrocytes) is reported as “not hemolytic” and the “effect on growth and viability” value [6] is reported as “did not affect the growth and viability of the cells”.
